# Literature values in patent publication US4894235A, “Nifedipine-containing form of administration and method for its production” (Dr. Rentschler, Arzneimmittel GmbH & Co., priority 1984, dated 1990).
# Key:
# [1] = Ramsch, Selecta 10, p. 860, 1983
# [2] = influence of light
smiles,measurement,setting,value
"COC(=O)C1=C(C)NC(C)=C(C(=O)OC)C1c1ccccc1[N+](=O)[O-] [Nifedipine, 1,4-dihydro-2,6-dimethyl-4-(2-nitrophenyl)-3,5-pyridine-dicarboxylic acid-dimethylester]",lower limit for blood plasma levels,[1],10 to 15 nanograms per milliliter
same,photo-sensitivity,[2],very photo-sensitive
